Converted amounts (≈) assume the structure as drawn.
Molecular target: recombinant form of Glutaminase 1 (GAC) (Homo sapiens, UniProt O94925)
Experiment: Recombinant enzyme assay (GAC, GDH-coupled absorbance, no preincubation)
Format: biochemical
Conditions: read-out: GAC Delta N2 IC50 no preinc
Experimental: Enzymatic reaction was started with the addition of 50 μL of enzyme solution (50 mM Tris-HCl pH 8.0, 0.2 mM EDTA, 150 mM K2HPO4, 0.1 mg/ml BSA, 1 mM DTT, 10 ppm antifoam, 4 units/ml GDH, 4 mM adenosine diphosphate, and 4 nM GAC) and read in a Molecular Devices M5 plate reader at 20° C. The plate reader was configured to read absorbance (λ=340 nm) in kinetic mode for 15 minutes. Data was recorded as milli-absorbance units per minute and slopes were compared to a control compound and a DMSO-only control on the same plate. Compounds with slopes less than the DMSO control were considered inhibitors and plate variability was assessed using the control compound.
CCOc1ccccc1CC(=O)Nc1nnc(CCCCc2nnc(NC(=O)Cc3ccccc3OC)s2)s1 [Compound 300] showed an IC50 of 160 nM.
For COc1cccc(CC(=O)Nc2nnc(CCSCc3nnc(NC(=O)Cc4cccc(OC)c4)s3)s2)c1 [Compound 250], the IC50 was 120 nM.
In the case of O=C(Nc1nnc(CCCCc2nnc(NC(=O)C3COc4ccccc43)s2)s1)C1COc2ccccc21 (centres unmarked) [Compound 135], the IC50 is reported as 300 nM.
With CC[C@](O)(C(=O)Nc1nnc(CCCCc2nnc(NC(=O)[C@@](O)(CC)c3ccccc3)s2)s1)c1ccccc1 (single isomer, unassigned) [Compound 144] the IC50 was > 20000 nM.
In the case of O=C(Cc1ccc(Cl)s1)Nc1cnc(CCSCCc2nnc(NC(=O)Cc3ccc(Cl)s3)s2)s1 [Compound 206], the IC50 is reported as > 20000 nM.
In the case of CC(C)(C)OC(=O)Nc1ccc(CC(=O)Nc2nnc(CCCCc3nnc(NC(=O)Cc4ccc(NC(=O)OC(C)(C)C)cc4)s3)s2)cc1 [Compound 192], the IC50 is reported as > 20000 nM.
Compound O=C(Cc1cc2ccccc2o1)Nc1nnc(CCSCCc2nnc(NC(=O)Cc3cc4ccccc4o3)s2)s1 [Compound 193] has an IC50 of 3400 nM.
In the case of CC(C)(C)c1ccc(CC(=O)Nc2nnc(CCCCc3nnc(NC(=O)Cc4ccc(C(C)(C)C)cc4)s3)s2)cc1 [Compound 191], the IC50 is reported as > 20000 nM.
Compound O=C(Cc1ccccc1)Nc1ccc(CCCCc2nnc(NC(=O)Cc3cccc(O)c3)s2)nn1 [Compound 337] has an IC50 of 76 nM.
In the case of O=C(Cc1nnc(CCSCCc2nnc(NC(=O)C3CCOCC3)s2)s1)C1CCOCC1 [Compound 108], the IC50 is reported as > 20000 nM.
Work on O=C(N[C@@H](CO)C(=O)Nc1nnc(CCSCCc2nnc(NC(=O)[C@H](CO)NC(=O)OCc3ccccc3)s2)s1)OCc1ccccc1 [Compound 138] yielded an IC50 of 750 nM.
With O=C(Cc1cc2ccccc2s1)Nc1cnc(CCSCCc2nnc(NC(=O)Cc3cc4ccccc4s3)s2)s1 [Compound 207] the IC50 was 13000 nM.
O=C(O)Cc1cccc(CC(=O)Nc2nnc(CCCCc3nnc(NC(=O)Cc4cccc(CC(=O)O)c4)s3)s2)c1 [Compound 313] gave an IC50 of 270 nM.
COc1cc(CC(=O)Nc2nnc(CCSCCc3nnc(NC(=O)Cc4cc(OC)cc(OC)c4)s3)s2)cc(OC)c1 [Compound 202] gave an IC50 of 180 nM.
Compound Nc1cccc(CC(=O)Nc2nnc(CCCCc3nnc(NC(=O)Cc4cccc(N)c4)s3)s2)c1 [Compound 329] has an IC50 of 170 nM.
In the case of CC1(C)O[C@@H](C(=O)Nc2nnc(CCCCc3nnc(NC(=O)[C@@H]4OC(C)(C)O[C@H]4c4ccccc4)s3)s2)[C@H](c2ccccc2)O1 [Compound 223], the IC50 is reported as > 20000 nM.

Test system: P493-6 (myc "on") cells
Experiment: Cell proliferation assay (72 hrs, Cell Titer Glo or Viacount FACS)
Format: cell-based
Conditions: P493-6 (myc on) cells, 72 hrs; read-out: Cell prolif P493 IC50
Experimental: P493-6 (myc “on”) cells were maintained in growth media (RPMI-1640, 10% FBS, 2 mM glutamine, 100 units/ml Penicillin and 100 μg/ml streptomycin) at 37° C. with 5% CO2. For compound assay, P493-6 cells were plated in 96-well V-bottom plates on the day of compound addition in 50 μl of growth media at a cell density of 200,000 cells/ml (10,000 cells/well). Compounds were serially diluted in 100% DMSO at 200-times the final concentration. Compounds were diluted 100-fold into growth media and then 50 μl of this mixture was added to cell plates making the final concentration of DMSO 0.5%. Cells were incubated with compound for 72 hrs at 37° C. with 5% CO2 and analyzed for antiproliferative effects either by Cell Titer Glo (Promega) or FACS analysis using the Viacount (Millipore) kit on the Guava instrument.
With CCNC(=O)CC(C)c1cccc(CC(=O)Nc2ccc(CCCCc3nnc(NC(=O)Cc4cccc(OC(F)(F)F)c4)s3)nn2)c1 (centres unmarked) [Compound 596] the IC50 was 330 nM.
CCCC(=O)OCN(C(=O)C(CO)c1cccc(CNC(=O)OC(C)(C)C)c1)c1nnc(CCCCc2ccc(NC(=O)Cc3ccccc3)nn2)s1 (centres unmarked) [Compound 567] gave an IC50 of 21 nM.
Work on CC(C(=O)Nc1nnc(CCCCc2ccc(NC(=O)Cc3ccccc3)nn2)s1)c1ccc(F)c(CNC(=O)OC(C)(C)C)c1 (centres unmarked) [Compound 568] yielded an IC50 of 28 nM.
Work on O=C(Cc1cccc(OC(F)(F)F)c1)Nc1ccc(CCCCc2nnc(NC(=O)Cn3c(CN4CCOCC4)nc4ccccc43)s2)nn1 [Compound 702] yielded an IC50 of 310 nM.
O=C(Cc1ccc(OC(F)(F)F)cc1)Nc1ccc(CCCCc2nnc(NC(=O)Cc3ccccc3)s2)nn1 [Compound 615] gave an IC50 of 12 nM.
CC1(CC(=O)Nc2ccc(CCCCc3nnc(NC(=O)Cc4cccc(CNC(=O)OC(C)(C)C)c4)s3)nn2)COC(C)(C)OC1 [Compound 529] showed an IC50 of 160 nM.

Same assay, conditions: P493-6, read-out: Cell prolif P493 72 h IC50; P493 cells, 72 h
Work on CCOc1ccccc1CC(=O)Nc1nnc(CCCCc2nnc(NC(=O)Cc3ccccc3OC)s2)s1 [Compound 300] yielded an IC50 of 160 nM.
Work on CCOC(=O)Nc1nnc(CCCCc2nnc(NC(=O)Cc3ccccc3)s2)s1 [Compound 369] yielded an IC50 of 1900 nM.
Work on O=C(C[C@@H](O)c1ccccc1)Nc1nnc(CCSCCc2nnc(NC(=O)C[C@@H](O)C3CCCCC3)s2)s1 [Compound 126] yielded an IC50 of 12000 nM.

Same assay, conditions: read-out: Cell prolif P493 72 h IC50; P493 cells, 72 h
In the case of CC(C)(C)OC(=O)N1CCN(Cc2cccc(CC(=O)Nc3nnc(CCSCc4nnc(NC(=O)Cc5cccc(CN6CCN(C(=O)OC(C)(C)C)CC6)c5)s4)s3)c2)CC1 [Compound 275], the IC50 is reported as 340 nM.
In the case of COC(C(=O)Nc1nnc(CCSCCc2nnc(NC(=O)C(OC)c3ccccc3)s2)s1)c1ccccc1 (centres unmarked) [Compound 67], the IC50 is reported as 1800 nM.
With COc1cccc(CC(=O)Nc2nnc(CCSCc3nnc(NC(=O)Cc4cccc(OC)c4)s3)s2)c1 [Compound 250] the IC50 was 140 nM.
For Cc1cccc(CC(=O)Nc2nnc(CCSCCc3nnc(NC(=O)Cc4cccc(C)c4)s3)s2)c1 [Compound 247], the IC50 was 830 nM.
Work on O=C(Cc1cccc(OCCN2CCOCC2)c1)Nc1nnc(CCSCCc2nnc(NC(=O)Cc3cccc(OCCN4CCOCC4)c3)s2)s1 [Compound 240] yielded an IC50 of 1300 nM.
O=C(Cc1cccc(Cn2cccn2)c1)Nc1nnc(CCCCc2nnc(NC(=O)Cc3cccc(Cn4cccn4)c3)s2)s1 [Compound 362] showed an IC50 of 54 nM.
For COc1cccc(CC(=O)Nc2nnc(CCSCCc3nnc(NC(=O)Cc4cccc(OC)c4OC)s3)s2)c1OC [Compound 259], the IC50 was 570 nM.
With COc1ccccc1CC(=O)Nc1nnc(CCCCc2nnc(NC(=O)Cc3ccccc3OC)s2)s1 [Compound 264] the IC50 was 10 nM.
Compound COc1ccccc1CC(=O)Nc1nnc(CCSCCc2nnc(NC(=O)C(CO)c3ccccc3OC)s2)s1 (centres unmarked) [Compound 246] has an IC50 of 1600 nM.
CC(C(=O)Nc1nnc(CCSCCc2nnc(NC(=O)C(C)c3ccccc3Cl)s2)s1)c1ccccc1Cl (centres unmarked) [Compound 261] gave an IC50 of 2600 nM.
In the case of COc1cccc(C(CO)C(=O)Nc2nnc(CCCCc3nnc(NC(=O)C(CO)c4cccc(OC)c4)s3)s2)c1 (centres unmarked) [Compound 257], the IC50 is reported as 73 nM.
In the case of O=C(Cc1cccc(-n2ccnc2)c1)Nc1nnc(CCCCc2nnc(NC(=O)Cc3cccc(-n4ccnc4)c3)s2)s1 [Compound 363], the IC50 is reported as > 20000 nM.
COc1ccccc1CC(=O)Nc1nnc(CCSCc2nnc(NC(=O)Cc3ccccc3OC)s2)s1 [Compound 249] showed an IC50 of 160 nM.
Work on O=C(Cc1cccc(OCCN2CCOCC2)c1)Nc1nnc(CCSCc2nnc(NC(=O)Cc3cccc(OCCN4CCOCC4)c3)s2)s1 [Compound 267] yielded an IC50 of 640 nM.
Work on O=C(Cc1ccc2ncccc2c1)Nc1nnc(CCCCc2nnc(NC(=O)Cc3ccc4ncccc4c3)s2)s1 [Compound 269] yielded an IC50 of 520 nM.
Compound CCOC(=O)Nc1nnc(CCCCc2nnc(NC(=O)Cc3ccccc3)s2)s1 [Compound 244] has an IC50 of 1700 nM.
For O=C(Cc1cccc(OCCO)c1)Nc1nnc(CCSCCc2nnc(NC(=O)Cc3cccc(OCCO)c3)s2)s1 [Compound 236], the IC50 was 1400 nM.
O=C(Cc1cccs1)Nc1nnc(CCSCc2nnc(NC(=O)Cc3cccs3)s2)s1 [Compound 237] gave an IC50 of 250 nM.
Compound O=C(Cc1cccc(-n2cccn2)c1)Nc1nnc(CCCCc2nnc(NC(=O)Cc3cccc(-n4cccn4)c3)s2)s1 [Compound 285] has an IC50 of 140 nM.
With O=C(Cc1cccc(Br)c1)Nc1nnc(CCSCCc2nnc(NC(=O)Cc3cccc(Br)c3)s2)s1 [Compound 270] the IC50 was 850 nM.
Work on O=C(CN1C(=O)OC[C@H]1c1ccccc1)Nc1nnc(CCSCCc2nnc(NC(=O)CN3C(=O)OC[C@H]3c3ccccc3)s2)s1 [Compound 243] yielded an IC50 of 33000 nM.
In the case of O=C(O)Cc1cccc(CC(=O)Nc2nnc(CCCCc3nnc(NC(=O)Cc4cccc(CC(=O)O)c4)s3)s2)c1 [Compound 313], the IC50 is reported as 94000 nM.
With CC(C(=O)Nc1nnc(CCCCc2nnc(NC(=O)C(C)c3ccccc3Cl)s2)s1)c1ccccc1Cl (centres unmarked) [Compound 274] the IC50 was 680 nM.
COc1cccc(C(CO)C(=O)Nc2nnc(CCSCc3nnc(NC(=O)C(CO)c4cccc(OC)c4)s3)s2)c1 (centres unmarked) [Compound 258] gave an IC50 of 180 nM.
Nc1cccc(CC(=O)Nc2nnc(CCCCc3nnc(NC(=O)Cc4cccc(N)c4)s3)s2)c1 [Compound 329] gave an IC50 of 450 nM.
O=C(Cc1ccc2ncccc2c1)Nc1nnc(CCSCCc2nnc(NC(=O)Cc3ccc4ncccc4c3)s2)s1 [Compound 268] gave an IC50 of 5400 nM.
COc1cccc(CC(=O)Nc2nnc(CCCCc3nnc(NC(=O)Cc4cccc(OC)c4OC)s3)s2)c1OC [Compound 260] showed an IC50 of 84 nM.
In the case of CC(C)(C)OC(=O)Nc1cccc(CC(=O)Nc2nnc(CCCCc3nnc(NC(=O)Cc4cccc(NC(=O)OC(C)(C)C)c4)s3)s2)c1 [Compound 327], the IC50 is reported as 150 nM.
For Cc1ccccc1C(C)C(=O)Nc1nnc(CCSCCc2nnc(NC(=O)C(C)c3ccccc3C)s2)s1 (centres unmarked) [Compound 262], the IC50 was 3100 nM.

Test system: not listed separately
Experiment: Solubility (vortex mixed at room temperature, filtered, HPLC quantitation)
Format: physicochemical
Conditions: 10% CrEL/50 mM cit
Experimental: Ca. 1 mg portions of test article were combined with 120 μL solvent in wells of a 96×2 mL polypropylene plate. […] The contents of all wells were then filtered through a 0.45 μm GHP filter plate to yield clear filtrates. 5 μL of each filtrate was diluted into 100 μL DMF and vortex mixed to yield HPLC samples. Duplicate quantitation standards for each test article were prepared by diluting weighed portions of solid test article in measured volumes of DMF. 2 μL of each HPLC sample and quantitation standard were analyzed by HPLC using the method outlined in Table 5. Dissolved test article concentrations were calculated by peak area ratio against the appropriate quantitation standards.
With CCCC(=O)OCN(C(=O)Cc1ccccc1)c1nnc(CCCCc2ccc(NC(=O)Cc3ccccc3)nn2)s1 [Compound 402] the Solubility was 157 µg/mL (≈ 0.268 mM).

Same assay, conditions: 20% HPBCD/50 mM cit
For O=C(Cc1cccc(OC(F)(F)F)c1)Nc1ccc(CCCCc2nnc(NC(=O)[C@@H](O)c3ccccc3)s2)nn1 [Compound 703], the Solubility was 651 µg/mL (≈ 1.11 mM).

Same assay, conditions: Capryol 90
Compound O=C(Cc1cccc(OC(F)(F)F)c1)Nc1ccc(CCCCc2nnc(NC(=O)Cc3ccccc3)s2)nn1 [Compound 585] has a Solubility of 1744 µg/mL (≈ 3.06 mM).

Same assay, conditions: PEG400
Work on CCCC(=O)OCN(C(=O)Cc1ccccc1)c1nnc(CCCCc2ccc(NC(=O)Cc3ccccc3)nn2)s1 [Compound 402] yielded a Solubility of 30179 µg/mL (≈ 51.4 mM).

Same assay, conditions: PG
Compound O=C(Cc1cccc(OC(F)(F)F)c1)Nc1ccc(CCCCc2nnc(NC(=O)C(O)c3cccc(Cl)c3)s2)nn1 (centres unmarked) [Compound 447] has a Solubility of 8265 µg/mL (≈ 13.3 mM).

— US9938267B2, “Heterocyclic inhibitors of glutaminase” (Calithera Biosciences, Inc., priority 2011, dated 2018)
